Results on 34 compounds are retold here after US20100173888A1 (Pfizer Inc, priority 2008, published 2010).

The IC50 is the midpoint of a concentration-inhibition curve.

The structures appear in SMILES notation. Structures can show the parent of a compound that is named as a salt.

Sequence of human recombinant H-PGDS (O60760 whole entry): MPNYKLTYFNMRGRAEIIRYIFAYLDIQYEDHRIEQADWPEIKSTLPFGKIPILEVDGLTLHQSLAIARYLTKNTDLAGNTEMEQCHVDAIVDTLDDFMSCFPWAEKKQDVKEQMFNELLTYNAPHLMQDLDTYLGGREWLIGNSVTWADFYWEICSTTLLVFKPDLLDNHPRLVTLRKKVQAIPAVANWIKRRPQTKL

For this assay, the target named is human recombinant H-PGDS (Homo sapiens, UniProt O60760). Kind of assay: Fluorescence intensity h-PGDS TBA enzyme assay (PGH2 depletion, MDA/TBA fluorescence). The format is biochemical. As to conditions: 1:175,000 human recombinant H-PGDS, 42 second reaction, 3-fold serial dilutions, highest concentration typically 1 μM. How it is done:
Fluoresecence Intensity h-PGDSTBA Enzyme Assay
Prostaglandin D Synthase (PGDS) converts the substrate prostaglandin H2 (PGH2) to prostaglandin D2. The depletion of PGH2 was measured via an Fe(II) reduction of the remaining PGH2 to malondialdehyde (MDA) and 12-HHT. The enzyme assay is based on the quantitative formation of a fluorescent complex from the non-fluorescent compounds MDA and 2-thiobarbituric acid (TBA), substantially as described in U.S. patent application publication US-2004/152148 by Lombardt.
The enzyme assay (31 μls) contained 100 mM Tris base pH 8.0, 100 μM MgCl2, 0.1 mg/ml IgG Rabbit serum, 5.0 μM PGH2 (Cayman; ethanol solution, #17020), 2.5 mM L-Glutathione (Sigma; reduced form. #G4251), 1:175,000 human recombinant H-PGDS (from 1 mg/ml), 0.5% DMSO and inhibitor (varying concentration). Three μls of diluted inhibitor (dissolved in DMSO) was plated into a 384-well assay plate followed by a 25 μl addition of an enzyme solution containing h-PGDS, Tris, MgCl2, IgG and L-Glutathione. After preincubation of inhibitor and enzyme solution for 10 minutes at room temperature, the reaction was initiated with a 3 μl addition of substrate solution in 10 mM HCl. The reaction was terminated after 42 second by the addition (3 μl) of stop buffer containing FeCl2 and citric acid. After addition of 45.5 μls of TBA plates were heated for one hour in a 70° C. oven. Plates were cooled at room temperature overnight and read on a plate reader the next day with excitation @ 530 nm and emission @ 565 nm.
IC50' s of inhibitors were calculated with a 4-parameter fit using 11 inhibitor concentrations in duplicate with 3-fold serial dilutions. Controls on each plate included no inhibitor (zero % effect) and an inhibitor 10-fold in excess of its' IC50 (100% effect). The highest inhibitor concentration tested was typically 1 μM.
For the compound `CN(C)CC(=O)N[C@H]1CC[C@H](NC(=O)c2ccc(-c3cccc(F)c3)nc2)CC1` [Example 145, N-{trans-4-[(N,N-Dimethylglycyl)amino]cyclohexyl}-6-(3-fluorophenyl)nicotinamide], the IC50 stood at 11.6 nM.
To `O=C(N[C@H]1CC[C@@H](C(=O)NC2CC2)C1)c1ccc(-c2cccc(F)c2)nc1` [Example 160, N-[(1S,3R)-3-(cyclopropylcarbamoyl)cyclopentyl]-6-(3-fluorophenyl)nicotinamide] belongs 11.2 nM; to `CC(C)(O)C[C@H]1CC[C@H](NC(=O)c2ccc(-c3cccc(F)c3)nc2)CC1` [Example 152, 6-(3-Fluorophenyl)-N-[4-(trans 2-hydroxy-2-methylpropyl)cyclohexyl]nicotinamide], 2.2 nM.
As for `C[C@H](O)C(=O)N[C@H]1CC[C@H](NC(=O)c2ccc(-c3cccc(F)c3)nc2)CC1` [Example 144, 6-(3-Fluorophenyl)-N-(trans-4-{[(2S)-2-hydroxypropanoyl]amino}cyclohexyl)nicotinamide], the IC50 was 7.5 nM.
`CN(C)C(=O)CNC(=O)[C@H]1CCC[C@@H](NC(=O)c2ccc(-c3cccc(F)c3)nc2)C1` (relative stereo) [Example 198]: the IC50 is 19.1 nM.
For the compound `CNC(=O)OC(C)(C)[C@H]1CC[C@H](NC(=O)c2ccc(-c3cccc(F)c3)nc2)CC1` [Example 229, 1-[trans-4-({[6-(3-Fluorophenyl)pyridin-3-yl]carbonyl}amino)cyclohexyl]-1-methylethyl methylcarbamate], the IC50 stood at 2.5 nM.
Next, `O=C(N[C@@H]1CC[C@H](C(=O)N2CCOCC2)C1)c1ccc(-c2cccc(F)c2)nc1` [Example 179, 6-(3-Fluorophenyl)-N-[(1R,3S)-3-(morpholin-4-ylcarbonyl)cyclopentyl]nicotinamide]: 5.6 nM.
As to `O=C(N[C@H]1CC[C@H](C(=O)NCCN2CCCCC2)CC1)c1ccc(-c2cccc(F)c2)nc1` [Example 113H, 6-(3-fluorophenyl)-N-{trans-4-[(2-piperidin-1-ylethyl)carbamoyl]cyclohexyl}nicotinamide], the concentration for half-maximal inhibition (IC50) came out at 46 nM.
As for `CS(=O)(=O)N[C@H]1CCC[C@H](NC(=O)c2ccc(-c3cccc(F)c3)nc2)C1` (relative stereo) [Example 249, 6-(3-Fluoro-phenyl)-N-trans-(3-methanesulfonylamino-cyclohexyl)-nicotinamide], the IC50 is 13.9 nM.
Next, `O=C(N[C@H]1CCC[C@@H](C(=O)N2CCC(O)CC2)C1)c1ccc(-c2cccc(F)c2)nc1` [Example 260, 6-(3-Fluorophenyl)-N-{(1S,3R)-3-[(4-hydroxypiperidin-1-yl)carbonyl]cyclohexyl}nicotinamide]: 59.9 nM; `N[C@@H]1[C@H]2CN(C(=O)[C@H]3CCC[C@@H](NC(=O)c4ccc(-c5cccc(F)c5)nc4)C3)C[C@@H]12` [Example 190, N-cis-3-{[(1R,5S,6S)-6-Amino-3-azabicyclo[3.1.0]hex-3-yl]carbonyl}cyclohexyl]-6-(3-fluorophenyl)nicotinamide hydrochloride]: 17.5 nM; `CN(C)C(=O)N[C@H]1CC[C@H](NC(=O)c2ccc(-c3cccc(F)c3)nc2)CC1` [Example 271]: 18 nM.
Next, `COC1(C(C)O)CCC(NC(=O)c2ccc(-c3cccc(F)c3)nc2)CC1` (stereo not shown) [Example 232, 6-(3-Fluorophenyl)-N-[4-(1-hydroxyethyl)-4-methoxycyclohexyl]nicotinamide]: 31.2 nM; `CC(C)(N)C(=O)N[C@H]1CC[C@H](NC(=O)c2ccc(-c3cccc(F)c3)nc2)CC1` [Example 113K, 6-(3-fluorophenyl)-N-{trans-4-[(2-methylalanyl)amino]cyclohexyl}nicotinamide]: 9.6 nM; `O=C(N[C@H]1CC[C@H](C(=O)N[C@@H]2CCNC2=O)CC1)c1ccc(-c2cccc(F)c2)nc1` [Example 113B, 6-(3-fluorophenyl)-N-(trans-4-{[(3R)-2-oxopyrrolidin-3-yl]carbamoyl}cyclohexyl)nicotinamide]: 7 nM.
To `O=C(CO)N[C@H]1CCC[C@H](NC(=O)c2ccc(-c3cccc(F)c3)nc2)C1` (relative stereo) [Example 245] belongs 21.6 nM.
In the case of `NC(=O)[C@H]1CC[C@@H](NC(=O)c2ccc(-c3cccc(F)c3)nc2)C1` [Example 186, N-[(1R,3S)-3-Carbamoylcyclopentyl]-6-(3-fluorophenyl)nicotinamide], the IC50 was 23.9 nM.
To `CN(C)C(=O)C1(C#N)CCCC(NC(=O)c2ccc(-c3cccc(F)c3)nc2)C1` (stereo not shown) [Example 266, N-[3-Cyano-3-(dimethylcarbamoyl)cyclohexyl]-6-(3-fluorophenyl)nicotinamide] belongs 10.6 nM; to `O=C(N[C@H]1CC[C@H](C(=O)NC2CCNCC2)CC1)c1ccc(-c2cccc(F)c2)nc1` [Example 201, 6-(3-Fluorophenyl)-N-[trans-4-(piperidin-4-ylcarbamoyl)cyclohexyl]nicotinamide], 31 nM.
Turning to `CC(O)[C@H]1CCC[C@@H](NC(=O)c2ccc(-c3cccc(F)c3)nc2)C1` (relative stereo) [Example 199, 6-(3-Fluorophenyl)-N-[(cis)-3-(1-hydroxyethyl)cyclohexyl]nicotinamide], the IC50 turned out to be 21.8 nM.
On to `O=C(N[C@H]1CC[C@@H](O)C1)c1ccc(-c2cccc(F)c2)nc1` (relative stereo) [Example 158, 6-(3-fluorophenyl)-N-[cis-3-hydroxycyclopentyl]nicotinamide], for which the IC50 was 68.9 nM.
To `O=C(NC1CCCCC1)c1ccc(-c2ccc(F)cc2)nc1` [Example 22, N-Cyclohexyl-6-(4-fluorophenyl)nicotinamide] belongs 40.8 nM; to `NCCC(O)C1CCC(NC(=O)c2ccc(-c3cccc(F)c3)nc2)CC1` (stereo not shown) [Example 154, N-[4-(3-Amino-1-hydroxypropyl)cyclohexyl]6-(3-fluorophenyl)nicotinamide hydrochloride], 40.3 nM.
With `Cc1ccnn1CC(=O)N[C@H]1CC[C@H](NC(=O)c2ccc(-c3cccc(F)c3)nc2)CC1` [Example 113M, 6-(3-fluorophenyl)-N-(trans-4-{[(5-methyl-1H-pyrazol-1-yl)acetyl]amino}cyclohexyl)nicotinamide], the IC50 is 7.6 nM.
In the case of `CCCOCC1(O)CCC(NC(=O)c2ccc(-c3cccc(F)c3)nc2)CC1` (stereo not shown) [Example 228, 6-(3-Fluorophenyl)-N-[4-hydroxy-4-(propoxymethyl)cyclohexyl]nicotinamide], the IC50 stood at 17.5 nM.
To `O=C(N[C@@H]1CCC[C@@H](C(=O)N2CCOCC2)C1)c1ccc(-c2cccc(F)c2)nc1` (relative stereo) [Example 241] belongs 15.4 nM.
To `O=C(N[C@H]1CC[C@H](O)CC1)c1ccc(-c2cccc(F)c2)nc1` [Example 104, 6-(3-Fluorophenyl)-N-(trans-4-hydroxycyclohexyl)nicotinamide] belongs 2.29 nM.
To `CN(C)CCCNC(=O)[C@H]1CC[C@H](NC(=O)c2ccc(-c3cccc(F)c3)nc2)CC1` [Example 113A, N-(trans-4-{[3-(dimethylamino)propyl]carbamoyl}cyclohexyl)-6-(3-fluorophenyl)nicotinamide] belongs 21.1 nM.
On to `CN(C)CCNC(=O)[C@@H]1CC[C@H](NC(=O)c2ccc(-c3cccc(F)c3)nc2)C1` [Example 167, N-[(1S,3R)-3-{[2-(Dimethylamino)ethyl]carbamoyl}cyclopentyl]-6-(3-fluorophenyl)nicotinamide], for which the IC50 was 28.5 nM.
On to `C[C@H](O)C(=O)N[C@@H]1CCC[C@H](NC(=O)c2ccc(-c3cccc(F)c3)nc2)C1` [Example 206, 6-(3-Fluorophenyl)-N-{cis-3-{[(2S)-2-hydroxypropanoyl]amino}cyclohexyl]nicotinamide], for which the IC50 came to 13.5 nM.
Next, `CC(C)(O)[C@H]1CC[C@@H](NC(=O)c2ccc(-c3cccc(F)c3)nc2)CC1` [Example 275, 6-(3-Fluorophenyl)-N-[cis-4-(1-hydroxy-1-methylethyl)cyclohexyl]nicotinamide]: 81.8 nM; `N[C@H]1CC[C@H](NC(=O)c2ccc(-c3cccc(F)c3)nc2)CC1` [Example 142B, N-(trans-4-Aminocyclohexyl)-6-(3-fluorophenyl)nicotinamide]: 16.4 nM.
To `CN1CCN(C(=O)C[C@H]2CC[C@@H](NC(=O)c3ccc(-c4cccc(F)c4)nc3)CC2)CC1` [Example 274, 6-(3-Fluorophenyl)-N-{cis-4-[2-(-methylpiperazin-1-yl)-2-oxoethyl]cyclohexyl}nicotinamide] belongs 13.7 nM; to `C[C@H](O)C(=O)N[C@H]1CCC[C@H](NC(=O)c2ccc(-c3cccc(F)c3)nc2)C1` [Example 246, 6-(3-Fluorophenyl)-N-{trans-3-{[(2S)-2-hydroxypropanoyl]amino}cyclohexyl]nicotinamide], 16.2 nM.
